According to patent US20160237059A1, “HETEROCYCLIC SUBSTITUTED TRIFLUOROMETHYL PYRIMIDINONES AND THEIR USE” (BAYER PHARMA AKTIENGESELLSCHAFT, priority 2013, published 2016):

How the values were obtained:
[1] = molecular target: T1, murine CCR2 (Mus musculus, UniProt P51683); assay: Functional β-arrestin recruiting test with murine MCP-1 (B-2b); type: cell-based; conditions: U2OS β-arrestin cell line transfected with murine CCR2; agonist murine MCP-1; in some cases means of several determinations
T1 construct: host or cells: U2OS β-arrestin cell line
Protocol: The antagonistic action of test substances on CCR2 was determined in a β-arrestin test. The PathHunter β-arrestin GPCR test system (DiscoveRx Corporation, Ltd.) is a cell-based functional method for detecting binding of β-arrestin to an activated receptor. The molecular basis is a […] complementation measured by the enzymatic conversion of a chemiluminescent substrate. The test cell used was a U2OS β-arrestin cell line transfected with murine CCR2 (93-0543C3, DiscoveRx Corporation, Ltd.).
(§1) The test substances were dissolved in dimethyl sulphoxide (DMSO) at a concentration of 10 mM and serially diluted with DMSO in steps of 1:3.16 for a 10-point dose/activity analysis. According to the desired test concentrations, the substances were pre-diluted in Tyrode with 2 mM CaCl2 and 0.05% BSA.
The cells, cultivated in MEM Eagle (supplemented with 10% FCS, 50 U/ml of penicillin, 50 μg/ml of streptomycin, 250 μg/ml of hygromycin and 500 μg/ml of geniticin), were sown at 2000 cells/25 μl in 384 well, μCLEAR/black cell culture plates from Greiner (#781092) and incubated at 37° C. for 24 h. The sowing medium consisted of Opti-MEM (supplemented with 1% FCS, 50 U/ml of penicillin and 50 μg/ml of streptomycin). The cells were pre-incubated for 10 min with 10 μl of the test substances diluted in buffer, and 10 μl of agonist solution [human MCP-1 (PeproTech, #300-04) in Tyrode with 0.05% BSA) were then added. The human MCP-1 was employed at the concentration which corresponds to the EC50 which had been determined in a preliminary test (usually about 3 nM). After 90 min of incubation at 37° C., the solution was removed, and recruitment of β-arrestin to CCR2 was detected with the aid of the PathHunter detection reagent (93-001, DiscoveRx Corporation, Ltd.) according to the instructions of the manufacturer. Luminescence was measured after an incubation time of 60 min using a proprietary luminescence imaging measuring instrument. The molar concentration of the test substance which caused 50% inhibition of the MCP-1 effect (IC50) was determined using a 4-parameter logistic function (Hill function).
The test was carried out in a manner identical to that described above under B-2a, but using murine MCP-1 (PeproTech, #250-10) as agonist.

[2] = molecular target: T2, human CCR2 (Homo sapiens, UniProt P41597); assay: Functional Ca2+ release test (B-1); type: cell-based; conditions: Chem-1 cell line transfected with human CCR2; 50% inhibition of the MCP-1 effect, MCP-1 at EC50 (about 5 nM); in some cases means of several determinations
T2 construct: host or cells: Chem-1 cell line
T2 sequence (P41597 1-360 isoform P41597-2): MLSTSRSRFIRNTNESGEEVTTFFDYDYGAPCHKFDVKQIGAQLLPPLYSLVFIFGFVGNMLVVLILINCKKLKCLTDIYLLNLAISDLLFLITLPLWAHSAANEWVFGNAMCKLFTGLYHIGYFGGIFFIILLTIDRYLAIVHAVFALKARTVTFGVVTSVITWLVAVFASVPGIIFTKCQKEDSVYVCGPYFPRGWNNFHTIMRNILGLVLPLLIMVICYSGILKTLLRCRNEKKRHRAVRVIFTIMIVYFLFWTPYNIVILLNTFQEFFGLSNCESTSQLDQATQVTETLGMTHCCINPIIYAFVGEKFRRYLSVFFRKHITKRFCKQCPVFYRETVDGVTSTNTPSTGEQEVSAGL
Protocol: The antagonistic action of test substances on CCR2 was determined in a functional Ca^2+ release test. Binding of CCL2/MCP-1 to CCR2 leads to a change in the conformation of the receptor resulting in Gi/Gq protein activation and intracellular signal cascade. This involves, inter alia, an intracellular Ca^2+ release. The test cell used was a Chem-1 cell line transfected with human CCR2 (ChemiSCREEN™ CCR2B Calcium-Optimized FLIPR Cell Line, Merck Millipore).
as §1
The cells, cultivated in DMEM high glucose [supplemented with 10% FCS, 1 mM pyruvate, 15 mM HEPES, 500 μg/ml geniticin and non-essential amino acids (NEAA)], were sown at 5000 cells/25 μl in 384 well, μCLEAR/black cell culture plates from Greiner (#781092) and incubated at 37° C. for 24 h. The sowing medium consisted of DMEM high glucose [supplemented with 5% FCS, 1 mM pyruvate, 15 mM HEPES, 50 U/ml penicillin, 50 μg/ml streptomycin and non-essential amino acids (NEAA)]. The medium was then removed and the cells were charged for 60 min at 37° C. with Fluo-4 dye [25 μl Tyrode with 3 μM Fluo-4 AM (1 mM DMSO stock solution), 0.4 mg/ml Brilliant Black, 2.5 mM probenicid, 0.03% Pluronic F-127]. The cells were pre-incubated for 10 min with 10 μl of the test substances diluted in buffer, and 20 μl of agonist solution (MCP-1 in Tyrode with 0.05% BSA) were then added. MCP-1 was employed at the concentration which corresponds to the EC50 which had been determined in a preliminary test (usually about 5 nM). Ca^2+ release was monitored over a period of 120 s in 1 s increments in a proprietary fluorescence imaging reader. The molar concentration of the test substance which caused 50% inhibition of the MCP-1 effect (IC50) was determined using a 4-parameter logistic function (Hill function).

T1 sequence (P51683 whole entry): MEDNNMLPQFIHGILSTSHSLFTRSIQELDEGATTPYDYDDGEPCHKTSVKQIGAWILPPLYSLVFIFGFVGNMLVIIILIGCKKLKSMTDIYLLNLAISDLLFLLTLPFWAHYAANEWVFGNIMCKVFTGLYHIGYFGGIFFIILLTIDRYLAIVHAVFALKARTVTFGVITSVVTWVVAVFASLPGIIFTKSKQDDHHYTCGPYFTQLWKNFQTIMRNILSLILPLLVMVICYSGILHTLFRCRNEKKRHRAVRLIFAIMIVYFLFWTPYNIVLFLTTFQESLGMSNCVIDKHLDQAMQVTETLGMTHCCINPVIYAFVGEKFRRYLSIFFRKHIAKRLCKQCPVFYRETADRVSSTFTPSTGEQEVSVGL

SMILES	IC50 [1]	IC50 [2]
CC(C)Oc1ccnc(-c2nc(C(F)(F)F)c(Oc3ccc(Cl)c(C(F)(F)F)c3)c(=O)[nH]2)c1 [Example 150, 5-[4-chloro-3-(trifluoromethyl)phenoxy]-2-(4-isopropoxypyridin-2-yl)-6-(trifluoromethyl)pyrimidin-4(3H)-one]	1.34 µM	0.023 µM
CC(C)(C)Oc1cccc(-c2nc(C(F)(F)F)c(Oc3ccc(Cl)c(C(F)(F)F)c3)c(=O)[nH]2)n1 [Example 151, 2-(6-tert-butoxypyridin-2-yl)-5-[4-chloro-3-(trifluoromethyl)phenoxy]-6-(trifluoromethyl)pyrimidin-4(3H)-one]	3.68 µM	0.096 µM
COc1ccnc(-c2nc(C(F)(F)F)c(Oc3ccc(Cl)c(C(F)(F)F)c3)c(=O)[nH]2)c1 [Example 152, 5-[4-chloro-3-(trifluoromethyl)phenoxy]-2-(4-methoxypyridin-2-yl)-6-(trifluoromethyl)pyrimidin-4(3H)-one]	0.838 µM	0.0082 µM
Nc1ccc(-c2nc(C(F)(F)F)c(Oc3ccc(Cl)c(C(F)(F)F)c3)c(=O)[nH]2)nn1 [Example 153, 2-(6-aminopyridazin-3-yl)-5-[4-chloro-3-(trifluoromethyl)phenoxy]-6-(trifluoromethyl)pyrimidin-4(3H)-one]	0.087 µM	0.0007 µM
Nc1ncc(-c2nc(C(F)(F)F)c(Oc3ccc(Cl)c(Cl)c3)c(=O)[nH]2)cn1 [Example 154, 2′-amino-5-(3,4-dichlorophenoxy)-6-(trifluoromethyl)-2,5′-bipyrimidin-4(3H)-one]	1.93 µM	0.037 µM
Nc1ncc(-c2nc(C(F)(F)F)c(Oc3ccc(Cl)c(C(F)(F)F)c3)c(=O)[nH]2)cn1 [Example 155, 2′-amino-5-[4-chloro-3-(trifluoromethyl)phenoxy]-6-(trifluoromethyl)-2,5′-bipyrimidin-4(3H)-one]	1.08 µM	0.023 µM
COc1cc(OC)nc(-c2nc(C(F)(F)F)c(Oc3ccc(Cl)c(Cl)c3)c(=O)[nH]2)n1 [Example 156, 5-(3,4-dichlorophenoxy)-4′,6′-dimethoxy-6-(trifluoromethyl)-2,2′-bipyrimidin-4(3H)-one]	0.244 µM	0.0007 µM
Cc1ccc(-c2nc(C(F)(F)F)c(Oc3ccc(Cl)c(Cl)c3)c(=O)[nH]2)nc1C [Example 157, 5-(3,4-dichlorophenoxy)-2-(5,6-dimethylpyridin-2-yl)-6-(trifluoromethyl)pyrimidin-4(3H)-one]	1.51 µM	0.014 µM
Cc1ccc(-c2nc(C(F)(F)F)c(Oc3ccc(Cl)c(C(F)(F)F)c3)c(=O)[nH]2)nc1C [Example 158, 5-[4-chloro-3-(trifluoromethyl)phenoxy]-2-(5,6-dimethylpyridin-2-yl)-6-(trifluoromethyl)pyrimidin-4(3H)-one]	0.983 µM	0.0087 µM
CC(C)(C)Oc1ccnc(-c2nc(C(F)(F)F)c(Oc3ccc(Cl)c(Cl)c3)c(=O)[nH]2)c1 [Example 159, 2-(4-tert-butoxypyridin-2-yl)-5-(3,4-dichlorophenoxy)-6-(trifluoromethyl)pyrimidin-4(3H)-one]	2.47 µM	0.062 µM
CC(C)(C)Oc1ccnc(-c2nc(C(F)(F)F)c(Oc3ccc(Cl)c(C(F)(F)F)c3)c(=O)[nH]2)c1 [Example 160, 2-(4-tert-butoxypyridin-2-yl)-5-[4-chloro-3-(trifluoromethyl)phenoxy]-6-(trifluoromethyl)pyrimidin-4(3H)-one]	1.96 µM	0.062 µM
O=c1[nH]c(-c2cccc[n+]2[O-])nc(C(F)(F)F)c1Oc1ccc(Cl)c(Cl)c1 [Example 161, 5-(3,4-dichlorophenoxy)-2-(1-oxidopyridin-2-yl)-6-(trifluoromethyl)pyrimidin-4(3H)-one]	0.432 µM	0.0023 µM
CCc1cccc(-c2nc(C(F)(F)F)c(Oc3ccc(Cl)c(Cl)c3)c(=O)[nH]2)n1 [Example 162, 2-(6-ethylpyridin-2-yl)-5-(3,4-dichlorophenoxy)-6-(trifluoromethyl)pyrimidin-4(3H)-one]	1.07 µM	0.0019 µM
